Source: PubChem BioAssay AID192 (DTP/NCI, 2004)
Where “and” joins values, the source holds several entries; their conditions need not be identical. Equal entries are not always repeated. Toxic doses and inconclusive results are not listed. Peptide text beside a SMILES is read from it.

Tested on: BDF1 mice, B16 melanoma ip, median survival T/C
Assay: NCI In Vivo Anticancer Drug Screen. Data for tumor model B16 Melanoma (intraperitoneal) in B6D2F1 (BDF1) mice
Conditions: endpoint: median survival time, higher = longer survival
Outline: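 Mice with transplantable tumors; drug vs vehicle groups; endpoint survival or tumor size; value = T/C.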

[1] = dose: 0.2 mg/kg/injection, schedule: Q01DX009 (ip), vehicle: saline
[2] = dose: 100.0 mg/kg/injection, schedule: Q01DX009 (ip), vehicle: saline
[3] = dose: 200.0 mg/kg/injection, schedule: Q01DX009 (ip), vehicle: saline
[4] = dose: 400.0 mg/kg/injection, schedule: Q01DX009 (ip), vehicle: saline
[5] = dose: 50.0 mg/kg/injection, schedule: Q01DX009 (ip), vehicle: saline with Tween-80
[6] = dose: 100.0 mg/kg/injection, schedule: Q01DX009 (ip), vehicle: saline with Tween-80
[7] = dose: 200.0 mg/kg/injection, schedule: Q01DX009 (ip), vehicle: saline with Tween-80
[8] = dose: 25.0 mg/kg/injection, schedule: Q01DX009 (ip), vehicle: saline
[9] = dose: 50.0 mg/kg/injection, schedule: Q01DX009 (ip), vehicle: saline
[10] = dose: 50.0 mg/kg/injection, schedule: Q01DX009 (ip), vehicle: Klucel (hydroxypropylcellulose) (HPC)
[11] = dose: 100.0 mg/kg/injection, schedule: Q01DX009 (ip), vehicle: Klucel (hydroxypropylcellulose) (HPC)
[12] = dose: 200.0 mg/kg/injection, schedule: Q01DX009 (ip), vehicle: Klucel (hydroxypropylcellulose) (HPC)
[13] = dose: 100.0 mg/kg/injection, schedule: Q04DX003 (ip), vehicle: saline with Tween-80
[14] = dose: 200.0 mg/kg/injection, schedule: Q04DX003 (ip), vehicle: saline with Tween-80
[15] = dose: 400.0 mg/kg/injection, schedule: Q04DX003 (ip), vehicle: saline with Tween-80
[16] = dose: 400.0 mg/kg/injection, schedule: Q01DX009 (ip), vehicle: Klucel (hydroxypropylcellulose) (HPC)

Compound: O=C(C=C(C(F)(F)F)C(F)(F)F)c1cccc([N+](=O)[O-])c1
- T/C [1]: 95 % of control
- T/C (dose: 0.4 mg/kg/injection, schedule: Q01DX009 (ip), vehicle: saline): 102 % of control
- T/C (dose: 0.8 mg/kg/injection, schedule: Q01DX009 (ip), vehicle: saline): 95 % of control
- T/C (dose: 6.25 mg/kg/injection, schedule: Q01DX009 (ip), vehicle: saline with Tween-80): 86 % of control
- T/C (dose: 6.25 mg/kg/injection, schedule: Q04DX003 (ip), vehicle: saline with Tween-80): 113 % of control
- T/C (dose: 25.0 mg/kg/injection, schedule: Q04DX003 (ip), vehicle: saline with Tween-80): 111 % of control

Compound: COC1=C(O)C(C(O)CO)OC1=O (stereo not given)
- T/C [2]: 99 % of control
- T/C [3]: 110 % of control
- T/C [4]: 108 % of control

Compound: CNC1=C(N2CC2)C(=O)C(NC)=C(N2CC2)C1=O
- T/C (dose: 0.01 mg/kg/injection, schedule: Q01DX009 (ip), vehicle: saline): 102 % of control
- T/C (dose: 0.1 mg/kg/injection, schedule: Q01DX009 (ip), vehicle: saline): 108 % of control
- T/C [1]: 94 % of control

Compound: CS(=O)(=O)OCC(=O)NCC(O)CNC(=O)COS(C)(=O)=O
- T/C [5]: 109 % of control
- T/C [6]: 104 % of control
- T/C [7]: 115 % of control

Compound: NC(N)=NCCCC(N)C(=O)NC(CCC(=O)O)C(=O)O (stereo not drawn) (H-Arg-Glu-OH; configuration not given here)
- T/C [8]: 108 % of control
- T/C [9]: 96 % of control
- T/C [2]: 104 % of control
- T/C [3]: 102 % of control
- T/C [4]: 101 % of control

Compound: Cc1cc(C)nc(NC(N)=NCCc2ccccc2)n1
- T/C (dose: 12.5 mg/kg/injection, schedule: Q01DX009 (ip), vehicle: saline with Tween-80): 104 % of control
- T/C (dose: 25.0 mg/kg/injection, schedule: Q01DX009 (ip), vehicle: saline with Tween-80): 88 % of control
- T/C [5]: 97 % of control

Compound: CC(=O)c1ccc(F)cc1
- T/C (dose: 25.0 mg/kg/injection, schedule: Q01DX009 (ip), vehicle: Klucel (hydroxypropylcellulose) (HPC)): 100 % of control
- T/C [10]: 106 % of control
- T/C [11]: 103 % of control
- T/C [12]: 106 % of control

Compound: CCC[CH2][Pb]([CH2]CCC)([CH2]CCC)[O]C(=O)CCl
- T/C (dose: 1.56 mg/kg/injection, schedule: Q01DX009 (ip), vehicle: Klucel (hydroxypropylcellulose) (HPC)): 90 % of control

Compound: C=CC(C)NC(=S)NNC(=S)NC (stereo not given)
- T/C (dose: 25.0 mg/kg/injection, schedule: Q01DX009 (ip), vehicle: saline + alcohol): 97 % of control
- T/C (dose: 50.0 mg/kg/injection, schedule: Q01DX009 (ip), vehicle: saline + alcohol): 102 % of control
- T/C (dose: 100.0 mg/kg/injection, schedule: Q01DX009 (ip), vehicle: saline + alcohol): 104 % of control
- T/C (dose: 200.0 mg/kg/injection, schedule: Q01DX009 (ip), vehicle: saline + alcohol): 98 % of control
- T/C (dose: 400.0 mg/kg/injection, schedule: Q01DX009 (ip), vehicle: saline + alcohol): 97 % of control

Compound: CC(Br)C(=O)NC(CO)C(=O)O (stereo not given)
- T/C [6]: 94 % of control
- T/C [13]: 108 % of control
- T/C [7]: 99 % of control
- T/C [14]: 113 % of control
- T/C (dose: 400.0 mg/kg/injection, schedule: Q01DX009 (ip), vehicle: saline with Tween-80): 86 % of control
- T/C [15]: 108 % of control

Compound: O=CNC(CSC(=O)c1ccccc1)C(=O)O (stereo not given)
- T/C [10]: 100 % of control
- T/C [11]: 100 % of control
- T/C [12]: 94 % of control

Compound: Nc1cccc2c1C(=O)c1cccc(NC(=O)c3ccccc3)c1C2=O
- T/C [11]: 90 % of control
- T/C [12]: 106 % of control
- T/C [16]: 90 % of control

Compound: COc1ccc(NC(=O)Nc2ccc(C)c(Cl)c2)cc1
- T/C (dose: 100.0 mg/kg/injection, schedule: Q01DX009 (sc), vehicle: olive oil, sesame oil, peanut oil): 109 % of control
- T/C (dose: 200.0 mg/kg/injection, schedule: Q01DX009 (sc), vehicle: olive oil, sesame oil, peanut oil): 100 % of control
- T/C (dose: 400.0 mg/kg/injection, schedule: Q01DX009 (sc), vehicle: olive oil, sesame oil, peanut oil): 98 % of control

Compound: COc1cc2c(cc1OC)C(OC)N(C)c1c-2ccc2cc(OC)c(OC)cc12 (stereo not given)
- T/C (dose: 37.5 mg/kg/injection, schedule: Q01DX009 (ip), vehicle: Klucel (hydroxypropylcellulose) (HPC)): 98 % of control
- T/C (dose: 75.0 mg/kg/injection, schedule: Q01DX009 (ip), vehicle: Klucel (hydroxypropylcellulose) (HPC)): 95 % of control
- T/C (dose: 150.0 mg/kg/injection, schedule: Q01DX009 (ip), vehicle: Klucel (hydroxypropylcellulose) (HPC)): 100 % of control
- T/C (dose: 300.0 mg/kg/injection, schedule: Q01DX009 (ip), vehicle: Klucel (hydroxypropylcellulose) (HPC)): 100 % of control

Compound: C[n+]1ccc2cc(N)c3c4ccccc4sc3c2c1
- T/C (dose: 3.12 mg/kg/injection, schedule: Q01DX009 (ip), vehicle: Klucel (hydroxypropylcellulose) (HPC)): 103 % of control
- T/C (dose: 6.25 mg/kg/injection, schedule: Q01DX009 (ip), vehicle: Klucel (hydroxypropylcellulose) (HPC)): 101 % of control
- T/C (dose: 6.25 mg/kg/injection, schedule: Q01DX009 (ip), vehicle: saline): 113 % of control
- T/C (dose: 12.5 mg/kg/injection, schedule: Q01DX009 (ip), vehicle: Klucel (hydroxypropylcellulose) (HPC)): 95 % of control
- T/C (dose: 12.5 mg/kg/injection, schedule: Q01DX009 (ip), vehicle: saline): 119 % of control
- T/C [8]: 91 % of control

Compound: c1cc2cc3c(cc2c2c1CC1c4cc5c(cc4CCN1C2)OCO5)OCO3 (stereo not given)
- T/C [11]: 89 % of control
- T/C [12]: 86 % of control

Compound: Clc1ccccc1C=Nc1ccc2c(c1)Cc1ccccc1-2
- T/C [11]: 96 % of control
- T/C [12]: 96 % of control
- T/C [16]: 87 % of control

Compound: Cc1ccc(NC(=O)c2ccc(Cl)cc2)c(Br)c1
- T/C [13]: 105 % of control
- T/C [14]: 97 % of control
- T/C [15]: 88 % of control

Compound: CC(C)NCC(=O)c1ccc(O)c(O)c1
- T/C (dose: 5.0 mg/kg/injection, schedule: Q01DX009 (ip), vehicle: saline): 115 % of control
- T/C (dose: 10.0 mg/kg/injection, schedule: Q01DX009 (ip), vehicle: saline): 114 % of control
- T/C (dose: 20.0 mg/kg/injection, schedule: Q01DX009 (ip), vehicle: saline): 116 % of control
- T/C (dose: 40.0 mg/kg/injection, schedule: Q01DX009 (ip), vehicle: saline): 110 % of control
- T/C [2]: 113 % of control
- T/C (dose: 100.0 mg/kg/injection, schedule: Q04DX003 (ip), vehicle: saline): 108 % of control
- T/C [3]: 106 % of control
- T/C (dose: 200.0 mg/kg/injection, schedule: Q04DX003 (ip), vehicle: saline): 106 % of control
- T/C (dose: 400.0 mg/kg/injection, schedule: Q04DX003 (ip), vehicle: saline): 97 % of control

Compound: O=C(Cn1cc(F)c(=O)[nH]c1=O)c1ccco1
- T/C [10]: 94 % of control
- T/C [11]: 100 % of control
- T/C [12]: 94 % of control

Compound: COc1ccc(C(=O)C(C)Br)c(OCc2ccccc2)c1OC (stereo not given)
- T/C [6]: 95 % of control
- T/C [13]: 94 % of control
- T/C [7]: 87 % of control
- T/C [14]: 100 % of control
- T/C [15]: 97 % of control

Compound: COC(=O)CCNCc1ccccc1
- T/C [11]: 100 % of control
- T/C [12]: 96 % of control
- T/C [16]: 93 % of control

Compound: O=S(=O)(O)SCCNCCCCCC1CCCCC1
- T/C (dose: 0.75 mg/kg/injection, schedule: Q01DX009 (ip), vehicle: saline with Tween-80): 90 % of control
- T/C (dose: 1.5 mg/kg/injection, schedule: Q01DX009 (ip), vehicle: saline with Tween-80): 95 % of control
- T/C (dose: 3.0 mg/kg/injection, schedule: Q01DX009 (ip), vehicle: saline with Tween-80): 93 % of control
- T/C (dose: 6.0 mg/kg/injection, schedule: Q01DX009 (ip), vehicle: saline with Tween-80): 104 % of control
- T/C (dose: 12.0 mg/kg/injection, schedule: Q01DX009 (ip), vehicle: saline with Tween-80): 100 % of control

Compound: N#Cc1c(F)c(F)c(C#N)c(F)c1F
- T/C (dose: 1.25 mg/kg/injection, schedule: Q01DX009 (ip), vehicle: saline with Tween-80): 90 % of control
- T/C (dose: 2.5 mg/kg/injection, schedule: Q01DX009 (ip), vehicle: saline with Tween-80): 90 % of control

Compound: CC(=O)C(N)CCC(=O)O (stereo not given)
- T/C [9]: 105 % of control
- T/C [2]: 113 % of control
- T/C [3]: 97 % of control

Compound: NC(Cc1c[nH]c2ccc(N(CCCl)CCCl)cc12)C(=O)O (stereo not given)
- T/C (dose: 0.25 mg/kg/injection, schedule: Q01DX009 (ip), vehicle: saline with Tween-80): 159 % of control
- T/C (dose: 0.5 mg/kg/injection, schedule: Q01DX009 (ip), vehicle: saline with Tween-80): 163 % of control and 185 % of control
- T/C (dose: 1.0 mg/kg/injection, schedule: Q01DX009 (ip), vehicle: saline with Tween-80): 180 % of control and 226 % of control
- T/C (dose: 2.0 mg/kg/injection, schedule: Q01DX009 (ip), vehicle: saline with Tween-80): 184 % of control
